Activity calls are given as the source filed them. The rule behind the calls is not given here.
What was measured:
HCT-116 [1] = experiment: Cytotoxicity against human HCT116 cells assessed as cell growth inhibition after 48 hrs by sulforhodamine B assay; assay type: functional, cell-based; details: HCT-116, 48 h
HCT-116 [2] = experiment: Cytotoxicity against human HCT116 cells assessed as cell growth inhibition after 24 hrs by sulforhodamine B assay; assay type: functional, cell-based; details: HCT-116, 24 h
A549 = experiment: Cytotoxicity against human A549 cells assessed as cell growth inhibition after 48 hrs by sulforhodamine B assay; assay type: functional, cell-based; details: A549, 48 h
A-375 = experiment: Cytotoxicity against human A375 cells assessed as cell growth inhibition after 48 hrs by sulforhodamine B assay; assay type: functional, cell-based; details: A-375, 48 h
HCT-116 [3] = experiment: Antitumor activity against human HCT116 cells xenografted in nude BALB/c mouse assessed as tumor growth inhibition at 40 mg/kg, ip administered every other day for 21 days relative to control; assay type: functional; details: HCT-116, ip, 504 h, read-out: TGI
HCT-116 [4] = experiment: Antitumor activity against human HCT116 cells xenografted in nude BALB/c mouse assessed as tumor growth inhibition at 20 mg/kg, ip administered every other day for 21 days relative to control; assay type: functional; details: HCT-116, ip, 504 h, read-out: TGI
[5] = Toxicity in nude BALB/c mouse xenografted with human HCT116 cells assessed as body weight loss at 20 to 40 mg/kg, administered every other day for 21 days; assay type: organism-based; details: in vivo, 504 h
[6] = test system: Panel NCI-60 (60 carcinoma cell lines); experiment: Growth inhibition human NCI60 cells after 48 hrs by sulforhodamine B assay; assay type: functional
HCT-116 [7] = experiment: Induction of apoptosis in human HCT116 cells assessed as late apoptotic cells at 11.5 uM after 48 hrs by annexin V/propidium iodide-double staining based flow cytometry (reference value: 4.6%); assay type: functional
HCT-116 [8] = experiment: Induction of cellular senescence in human HCT116 cells at 11.5 uM after 48 hrs by SA-beta-gal-staining based assay; assay type: functional, cell-based
HCT-116 [9] = experiment: Induction of apoptosis in human HCT116 cells assessed as necrotic cells at 11.5 uM after 48 hrs by annexin V/propidium iodide-double staining based flow cytometry (reference value: […]); assay type: functional
HCT-116 [10] = experiment: Antitumor activity against human HCT116 cells xenografted in nude BALB/c mouse assessed as tumor growth inhibition at 25 mg/kg, ip administered every other day for 21 days relative to control; assay type: functional; details: HCT-116, ip, 504 h, read-out: TGI
HCT-116 [11] = experiment: Induction of apoptosis in human HCT116 cells assessed as early apoptotic cells at 11.5 uM after 48 hrs by annexin V/propidium iodide-double staining based flow cytometry (reference value: 4.8%); assay type: functional
HCT-116 [12] = experiment: Induction of apoptosis in human HCT116 cells assessed as viable cells at 11.5 uM after 48 hrs by annexin V/propidium iodide-double staining based flow cytometry (reference value: 88.3%); assay type: functional; details: HCT-116, 48 h, read-out: Activity
A2780 = experiment: Growth inhibition human A2780 cells after 72 hrs by MTS assay; assay type: functional, cell-based; details: A2780, 72 h
HCT-116 [13] = experiment: Growth inhibition human HCT116 cells after 72 hrs by MTS assay; assay type: functional, cell-based; details: HCT-116, 72 h
[14] = Ratio of IC50 for human A2780DDP cells to IC50 for human A2780 cells after 72 hrs by MTS assay; assay type: functional
[15] = Ratio of IC50 for human A2780/TAX cells to IC50 for human A2780 cells after 72 hrs by MTS assay; assay type: functional
[16] = Ratio of IC50 for human HCT116/VP35 cells to IC50 for human HCT116 cells after 72 hrs by MTS assay; assay type: functional
[17] = Ratio of IC50 for human HCT116/VM46 cells to IC50 for human HCT116 cells after 72 hrs by MTS assay; assay type: functional
Mus musculus [18] = experiment: Induction of cellular senescence in BALB/c mouse xenografted with human HCT116 cells assessed as up-regulation of p16 protein expression at 20 mg/kg, administered every other day for 3 weeks by immunohistochemical analysis; assay type: functional, organism-based
HT-29 = experiment: Growth inhibition human HT-29 cells after 72 hrs by MTS assay; assay type: functional, cell-based
Mus musculus [19] = experiment: Effect on p27 protein expression in BALB/c mouse xenografted with human HCT116 cells at 20 mg/kg, administered every other day for 3 weeks by immunohistochemical analysis; assay type: functional, organism-based
HCT-116 [20] = experiment: Antiproliferative activity against human HCT116 cells xenografted in BALB/c mouse at 20 mg/kg, administered every other day for 3 weeks by Ki67-staining based assay; assay type: functional, organism-based
HCT-116 [21] = experiment: Induction of cellular senescence in human HCT116 cells assessed as up-regulation of p21 protein expression at 0.2 to 0.8 ug/ml after 48 hrs by Western blot analysis; assay type: functional, cell-based
Mus musculus [22] = experiment: Induction of cellular senescence in BALB/c mouse xenografted with human HCT116 cells assessed as up-regulation of p21 protein expression at 20 mg/kg, administered every other day for 3 weeks by immunohistochemical analysis; assay type: functional, organism-based
HCT-116 [23] = experiment: Antiproliferative activity against human HCT116 cells assessed as inhibition of colony formation at 0.91 to 3.64 uM after 14 days by crystal violet-staining based assay; assay type: functional, cell-based
HCT-116 [24] = experiment: Antiproliferative activity against human HCT116 cells assessed as inhibition of colony formation at 0.58 to 2.31 uM after 14 days by crystal violet-staining based assay; assay type: functional, cell-based
HCT-116 [25] = experiment: Induction of cellular senescence in human HCT116 cells assessed as up-regulation of p21 protein expression at 0.1 to 0.4 ug/ml after 48 hrs by Western blot analysis; assay type: functional, cell-based

| Compound | IC50 (HCT-116 [1]) [µM] | IC50 (HCT-116 [2]) [µM] | IC50 (A549) [µM] | IC50 (A-375) [µM] | also measured |
| --- | --- | --- | --- | --- | --- |
| CC(=O)O[C@@H]1CCC(=O)[C@@]2(CC(=O)O[C@@H]2CC(C)CCCC(C)C)C1 (some centres undefined) | > 30 | > 30 |  |  |  |
| CC(=O)O[C@@H]1C=CC(=O)[C@@]2(CC(=O)O[C@@H]2/C=C(\C)C/C=C/C(C)(C)O)C1 | 4.2 |  | 20.8 | 4.25 |  |
| CC(=O)O[C@H]1C[C@]2(CC(=O)O[C@@H]2/C=C(\C)CCC=C(C)C)C(=O)C[C@@H]1Nc1ccccc1 | 2.63 | 3.43 |  |  | inhibition in vivo at 40 mg/kg (HCT-116 [3]): -8.6%; inhibition in vivo at 20 mg/kg (HCT-116 [4]): 31.1%; Activity [5]: Non-Toxic |
| CO[C@@H]1CC(=O)[C@@]2(CC(=O)O[C@@H]2/C=C(\C)CCC=C(C)C)C[C@@H]1O | 3.5 |  | 4.36 | 3.7 | GI50 [6]: 0.03 to 4.79 µM |
| O=c1[nH]cc(F)c(=O)[nH]1 [FLUOROURACIL] |  |  |  |  | Activity (HCT-116 [7]): 12.6%; Activity (HCT-116 [8]): Active; Activity (HCT-116 [9]): 4.4%; inhibition in vivo at 25 mg/kg (HCT-116 [10]): 32.5%; Activity (HCT-116 [11]): 4.7%; viability at 11.5 µM (HCT-116 [12]): 78.3% |
| COC(=O)[C@H](O)[C@@]1(C/C=C(\C)CCC=C(C)C)C[C@H](OC(C)=O)C=CC1=O | 4.1 |  | 7.15 | 3.6 |  |
| CC(=O)O[C@@H]1CC[C@@H](OC(C)=O)[C@@]2(CC(=O)O[C@@H]2/C=C(\C)CCC=C(C)C)C1 | > 30 | > 30 |  |  |  |
| CC(=O)O[C@@H]1CC[C@@H](O)[C@@]2(CC(=O)O[C@@H]2/C=C(\C)CCC=C(C)C)C1 | > 30 | > 30 |  |  |  |
| CO[C@H]1CC(=O)[C@@]2(CC(=O)O[C@@H]2/C=C(\C)CCC=C(C)C)C[C@@H]1O | 17.2 |  | 18.4 | 9.86 |  |
| CC(=O)O[C@@H]1CCC(=O)[C@@]2(CC(=O)O[C@@H]2/C=C(\C)CCC=C(C)C)C1 | > 30 | > 30 |  |  |  |
| COc1cc([C@@H]2c3cc4c(cc3[C@@H](O[C@@H]3O[C@@H]5CO[C@@H](C)O[C@H]5[C@H](O)[C@H]3O)[C@H]3COC(=O)[C@H]23)OCO4)cc(OC)c1O [ETOPOSIDE] |  |  |  |  | IC50 (A2780): 0.07 µM; IC50 (HCT-116 [13]): 0.41 µM; Ratio IC50 [14]: 2.5; Ratio IC50 [15]: 1.7; Ratio IC50 [16]: 7.4; Ratio IC50 [17]: 13.5 |
| CC(=O)O[C@H]1C[C@]2(CC(=O)O[C@@H]2/C=C(\C)CCC=C(C)C)C(=O)C[C@H]1Nc1ccccc1 | 2.5 | 2.93 |  |  | Activity (Mus musculus [18]): Active; inhibition in vivo at 40 mg/kg (HCT-116 [3]): 36.4%; growth inhibition (GI) (HT-29): Active; inhibition in vivo at 20 mg/kg (HCT-116 [4]): 36.4%; Activity (Mus musculus [19]): inactive; Activity (HCT-116 [20]): Active; Activity (HCT-116 [21]): Active; Activity (Mus musculus [22]): Active; Activity [5]: Non-Toxic; Activity (HCT-116 [23]): Active |
| CC(C)=CCC/C(C)=C/[C@H]1OC(=O)C[C@]12C[C@H](O)C=C[C@H]2O | > 65 |  | > 65 | > 65 |  |
| CC(=O)O[C@@H]1C=CC(=O)[C@@]2(CC(=O)O[C@@H]2/C=C(\C)CCCC(C)C=O)C1 (some centres undefined) | 5.49 | 7.18 |  |  |  |
| CC(=O)O[C@@H]1C=CC(=O)[C@@]2(CC(=O)O[C@@H]2/C=C(\C)CCC=C(CO)CO)C1 | 13.7 | 12.9 |  |  |  |
| CC(=O)O[C@@H]1C=CC(=O)[C@@]2(CC(=O)O[C@@H]2CC(C)CCCC(C)C)C1 (some centres undefined) | 1.95 | 1.95 |  |  |  |
| CC(=O)O[C@H]1C[C@]2(CC(=O)O[C@@H]2/C=C(\C)CCC=C(C)C)C(OC(=O)c2ccccc2)=C[C@H]1N(C(=O)c1ccccc1)c1ccccc1 | > 30 | > 30 |  |  |  |
| CC(=O)O[C@@H]1C=CC(=O)[C@@]2(CC(=O)O[C@@H]2/C=C(\C)CCC=C(C)C)C1 | 1.97 to 2.7 | 3.94 | 6.97 | 1.67 | Activity (HCT-116 [24]): Active; GI50 [6]: 0.03 to 4.79 µM; Activity (HCT-116 [25]): Active |
| COC(=O)C[C@@]1(C/C=C(\C)CCC=C(C)C)C[C@H](OC(C)=O)C=C[C@H]1O | 18.3 |  | 18 | 11.6 |  |
| CC(=O)O[C@@H]1C=CC(=O)[C@@]2(CC(=O)O[C@@H]2/C=C(\C)CC/C=C(\C)CO)C1 | 5.85 | 6.97 |  |  |  |
| COC(=O)C[C@@]1(C/C=C(\C)CCC=C(C)C)C[C@H](OC(C)=O)C=CC1=O | 13 |  | 24.5 | 10.4 |  |
| CC(=O)O[C@@H]1C=CC(=O)[C@@](C/C=C(\C)CCC=C(C)C)(CC(=O)O)C1 | > 57.5 |  | > 57.5 | > 57.5 |  |
| CC(=O)O[C@H]1C[C@]2(CC(=O)O[C@@H]2/C=C(\C)CCC=C(C)C)C(=O)C[C@H]1N(C(=O)c1ccccc1)c1ccccc1 | 10.4 | 14 |  |  |  |
| CC(=O)O[C@@H]1C=C[C@@H](O)[C@@]2(CC(=O)O[C@@H]2/C=C(\C)CCC=C(C)C)C1 | 13.3 |  | 18.3 | 7.24 |  |
